Experimental findings from PubChem BioAssay (NCI) are described below.

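Test compounds were applied to cells in 96-well plates for 48 hours at 5 doses. TGI: concentration producing complete growth inhibition.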 Bounds are passed on as bounds.

Some test systems named below: KM20L2 colon; LXFL 529 NSCLC; XF 498 CNS; 786-0 renal; P388 leukemia; P388/ADR leukemia; SN12K1 renal; SNB-78 CNS.
Holding throughout (test): NCI tumour cell line growth inhibition, 48 h

For `COc1c2c(c3ccccc3c1O)C1C=CC2C1` (stereo not given), the TGI in the assay with KM20L2 colon came out at 45.7 µM; with LXFL 529 NSCLC it was 14.7 µM; in the assay with XF 498 CNS, 27.9 µM.
Turning to `COC1=CC(=O)CC(C)C12Oc1c(Cl)c(OC)cc(OC)c1C2=O` (stereo not given), the TGI with 786-0 renal was over 100 µM.
On to `C=C1C(=O)O[C@@H]2[C@H](O)[C@@H](C)[C@@H]3C=CC(=O)[C@@]3(C)[C@@H](OC(=O)/C(C)=C/C)[C@H]12`, for which the TGI with KM20L2 colon turned out to be 5.54 µM; in the assay on P388 leukemia, 2.74 µM; with P388/ADR leukemia, 1.08 µM; with SN12K1 renal it was 0.688 µM; in the assay with SNB-78 CNS, 8.03 µM; in the assay with XF 498 CNS, 0.867 µM.
